Laboratory results taken from PMC3559838 (PLoS ONE, 2013).

Tests used:
HepG2 cells = assay: Gentian Violet viability staining, 24-well plates; format: cell-based, human; settings: 0–10 µM, 72 h
Procedure: To the other plate, equal molar concentrations of belinostat-G were added similarly. After 72 h, cells were stained with Gentian Violet paint (0.5% w/v; B.P.) and assessed for viability. […] After incubating 24 h, 100-µL drug solution or blank medium was added into each well of 96-well plates. 72 h later, 20 µL of MTS/PES was added into each well for incubation for 3 h. OD values are measured on wavelength 490 nm. Cell growth inhibition was calculated based on the […] with subtraction of background reading for only medium containing wells. The growth inhibition was defined as the percentage of the average […] from drug-treated wells over that from control wells without treatment. The experiment was done in triplicates. IC50 values were calculated using GraphPad PRISM software (GraphPad Software, Inc., La Jolla, CA, USA).

UGT2B7 = biological target: T1, UGT2B7 (Homo sapiens, UniProt P16662); assay: UGT supersome screening; format: in vitro ADME; settings: UGT2B7 supersomes, 10 µM belinostat, 37°C
T1 construct: purchased BD Gentest
T1 sequence (P16662 24-529): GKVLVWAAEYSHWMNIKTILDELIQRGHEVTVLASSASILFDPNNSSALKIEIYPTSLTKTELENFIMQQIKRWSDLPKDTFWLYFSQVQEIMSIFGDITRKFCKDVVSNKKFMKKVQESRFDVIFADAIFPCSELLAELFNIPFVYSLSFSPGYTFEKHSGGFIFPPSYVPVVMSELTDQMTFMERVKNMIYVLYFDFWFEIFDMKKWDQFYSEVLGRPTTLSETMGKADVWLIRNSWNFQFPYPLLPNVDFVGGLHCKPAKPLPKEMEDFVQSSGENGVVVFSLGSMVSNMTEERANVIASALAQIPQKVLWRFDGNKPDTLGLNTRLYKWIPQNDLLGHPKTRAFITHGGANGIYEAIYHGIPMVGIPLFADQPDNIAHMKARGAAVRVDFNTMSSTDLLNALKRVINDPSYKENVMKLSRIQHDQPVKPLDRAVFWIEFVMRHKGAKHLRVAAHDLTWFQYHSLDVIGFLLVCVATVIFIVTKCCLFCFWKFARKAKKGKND
Procedure: A typical incubation consisted of 50 µg of UGT, 2 mM UDPGA (UGT Reaction Solution A), 50 mM Tris-HCl, 8 mM MgCl2 and 0.025 mg/ml alamethicin (UGT Reaction Solution B) in a final incubation volume of 100 µL. Before the addition of substrate, the incubation mixture was prewarmed and equilibrated for 5 min at 37°C. […] The incubation mixture was vortexed and centrifuged (10,060 g) at 4°C for 10 min, and the supernatants were analyzed. Insect microsomes without UGT cDNA served as negative control. […] Incubations were performed as described above. Three independent experiments were performed for kinetic analysis.

[1] = tested on: murine P388 leukemia cells; design: method as in Investigator's Brochure, 2004; settings: P388 IP model, ref Investigator's Brochure, 2004, cited from earlier work
[2] = design: method as in Investigator's Brochure, 2004; settings: dogs, ref Investigator's Brochure, 2004, cited from earlier work
CYP2C9 = tested on: CYP2C9; design: method as in protocol pharmaceutical information; settings: ref protocol pharmaceutical information; cited from earlier work
[3] = design: method as in Investigator's Brochure, 2004; settings: rats and dogs; ref Investigator's Brochure, 2004; cited from earlier work
[4] = tested on: five major cytochrome P450 enzymes; settings: cited from earlier work

O=C(/C=C/c1cccc(S(=O)(=O)Nc2ccccc2)c1)NO [Belinostat, N-hydroxy-3-(phenylsulphamoylphenyl) acrylamide]
cytotoxicity / cell viability (staining) (HepG2 cells): significant dose-dependent cytotoxicity | metabolism by UGT isoform (UGT2B7): less than 3% | survival, 40 mg/kg/day × 5 days (from day 3) versus same total dose (200 mg/kg) as bolus on day 3 ([1]; P<0.0001): superior | survival, 20 mg/kg/day for 10 days versus 40 mg/kg every two days (cumulative 200 mg/kg) ([1]; P=0.009): better survival | survival rates, every second day three times versus every day for 5 days (cumulative 270 mg/kg) ([1]; p=0.49): no significant differences | survival, daily dose (20, 40, or 80 mg/kg for 5 days) fractionated into two doses per day versus one daily dose [1]: did not improve survival | increases in the rate of respiration ([2]; 15 mg/kg and 35 mg/kg): not significantly different | heart rate ([2]; high dose (35 mg/kg)): small transient increase in heart rate | electrocardiogram waveform changes (decrease in RR, PR and QT intervals) [2]: not substantially different from the control group | CYP2C9 inhibition (CYP2C9): weak to moderate inhibitor | elimination routes of PXD101 and its metabolites [3]: urinary and fecal routes | inhibition of the five major cytochrome P450 enzymes [4]: did not inhibit
